The experiment concerns chloroquine-resistant K1 strain of P. falciparum. The experiment can be described thus: 48-h sensitivity assay, [3H]-hypoxanthine incorporation as an assessment of parasite growth. The format is cell-based. The procedure: The antimalarial activity of the new dimers was tested against the chloroquine-resistant K1 strain of P. falciparum. A single uncloned K1, chloroquine resistant strain of P. falciparum from Thailand was used. Parasites were maintained in continuous culture using the method of Trager and Jenson. (J. Parasitol, 1977, 63, […]). Cultures were grown in flasks containing human erythrocytes (2-5%) with parasitemia in the range of 1% to 10% suspended in RPMI 1640 medium supplemented with 25 mM HEPES and 32 mM NaHCO3, and 10% human serum (complete medium). Cultures were gassed with a mixture of 3% O2, 4% CO2 and 93% N2.
Antimalarial activity was assessed with an adaption of the 48-h sensitivity assay of Desjardins et al. (Antimicrob. Agents. Chemother., 1979, 16, 710-718) using [^3H]-hypoxanthine incorporation as an assessment of parasite growth. Stock drug solutions were prepared in 100% dimethylsulphoxide (DMSO) and diluted to the appropriate concentration using complete medium. Assays were performed in sterile 96-well microtitre plates, each plate containing 200 μl of parasite culture (2% parasitemia, 0.5% haematocrit) with or without 10 μl drug dilutions. Each drag was tested in triplicate and parasite growth was compared to control wells (which constituted 100% parasite growth). After 24-h incubation at 37° C., 0.5 μCi hypoxanthine was added to each well. Cultures were incubated for a further 24 h before they were harvested onto filter-mats, dried for 1 h at 55° C. and counted using a Wallac 1450 Microbeta Trilux Liquid scintillation and luminescence counter. IC50 values were calculated by interpolation of the probit transformation of the log dose—response curve.

Setting [1] is: mean of the determinations, K1 strain, 48 h, read-out: Mean IC50.
Setting [2] is: single determinations (triplicate), K1 strain, 48 h, read-out: IC50.
Where [3] appears, read: Plasmodium falciparum, K1, 48 h, mean of the determinations, K1 strain, 48 h, read-out: Mean IC50.

pIC50: −log10 of the molar value. Values joined by “and” are separate entries in the source; they are usually repeats but may differ in a detail not shown here. Equal entries are not always repeated. Where two headings read alike, the source gives them in different places.

The pIC50 is the IC50 on a negative log10 scale, so that one unit is a factor of ten. As to “10β-(2-Hydroxyethyl)-deoxoartemisinin bis-ester (1,2)-dimer [PV30]”, under setting [1], the pIC50 was 8.59.

As to `C[C@H]1[C@@H](CCOCc2ccc(COCC[C@H]3O[C@@H]4O[C@]5(C)CC[C@H]6[C@H](C)CC[C@@H]([C@H]3C)[C@@]46OO5)cc2)O[C@@H]2O[C@]3(C)CC[C@H]4[C@H](C)CC[C@@H]1[C@@]24OO3` [PV41], the pIC50 is 8.62 under setting [1]; 8.59 and 8.51 and 8.80 under setting [2].

Turning to `CCN(CC)CCCC(C)Nc1ccnc2cc(Cl)ccc12` (stereo not shown) [Chloroquine, chloroquine, reference compound], the pIC50 by setting is: (Plasmodium falciparum, K1, 48 h) 6.72; (Plasmodium falciparum, K1, 48 h, read-out: Mean IC50) 6.72.

For the molecule `C[C@H]1[C@@H](CCOC(=O)CCC(=O)OCC[C@H]2O[C@@H]3O[C@]4(C)CC[C@H]5[C@H](C)CC[C@@H]([C@H]2C)[C@@]35OO4)O[C@@H]2O[C@]3(C)CC[C@H]4[C@H](C)CC[C@@H]1[C@@]24OO3` [PV33], the pIC50 under setting [1] was 8.74.

As for `CC1CCC2C(C)C(CCOC(=O)CCCC(=O)OCCC3OC4OC5(C)CCC6C(C)CCC(C3C)C46OO5)OC3OC4(C)CCC1C32OO4` (stereo not shown) [PV35], the pIC50 is 8.62 under setting [1]; 8.59 and 8.51 and 8.80 under setting [2].

As to `CO[C@H]1O[C@@H]2O[C@@]3(C)CC[C@H]4[C@H](C)CC[C@@H]([C@H]1C)[C@@]24OO3` [Artemether, artemether, reference compound], the pIC50 is 8.55 under setting [3] and 8.70 under setting [2].

Regarding `C[C@H]1[C@@H](CCOC(=O)c2cccc(C(=O)OCC[C@H]3O[C@@H]4O[C@]5(C)CC[C@H]6[C@H](C)CC[C@@H]([C@H]3C)[C@@]46OO5)c2)O[C@@H]2O[C@]3(C)CC[C@H]4[C@H](C)CC[C@@H]1[C@@]24OO3` [PV31, 10β-(2-hydroxyethyl)-deoxoartemisininbis-ester(1,3)-dimer], the pIC50 under setting [1] is 7.37; the pIC50 under setting [2] was 7.40 and 7.36.

On to `C[C@H]1[C@@H](CCOCc2cccc(COCC[C@H]3O[C@@H]4O[C@]5(C)CC[C@H]6[C@H](C)CC[C@@H]([C@H]3C)[C@@]46OO5)c2)O[C@@H]2O[C@]3(C)CC[C@H]4[C@H](C)CC[C@@H]1[C@@]24OO3` [PV43], for which the pIC50 under setting [1] was 8.54.

As for `C[C@H]1[C@@H](CCOCc2ccccc2COCC[C@H]2O[C@@H]3O[C@]4(C)CC[C@H]5[C@H](C)CC[C@@H]([C@H]2C)[C@@]35OO4)O[C@@H]2O[C@]3(C)CC[C@H]4[C@H](C)CC[C@@H]1[C@@]24OO3` [PV45], the pIC50 under setting [1] is 8.57.

For `CC1CCC2C(C)C(CCOP(=O)(OCCC3OC4OC5(C)CCC6C(C)CCC(C3C)C46OO5)Oc3ccccc3)OC3OC4(C)CCC1C32OO4` (stereo not shown) [PV37], the pIC50 under setting [1] is 9.30.

Take `C[C@@H]1CC[C@H]2[C@@H](C)C(=O)O[C@@H]3O[C@@]4(C)CC[C@@H]1[C@]32OO4` [Artemisinin, reference compound]: the pIC50 is 7.91 under setting [3] and 7.91 (Plasmodium falciparum, K1, 48 h, single determinations (triplicate), K1 strain, 48 h, read-out: IC50).

In the case of `C[C@H]1[C@@H](CCOC(=O)c2ccc(C(=O)OCC[C@H]3O[C@@H]4O[C@]5(C)CC[C@H]6[C@H](C)CC[C@@H]([C@H]3C)[C@@]46OO5)cc2)O[C@@H]2O[C@]3(C)CC[C@H]4[C@H](C)CC[C@@H]1[C@@]24OO3` [PV32, 10-β-(2-Hydroxyethyl)-deoxoartemisinin bis-ester(1,4)-dimer], the pIC50 was 8.34 under setting [1]; 8.26 and 8.28 and 8.52 under setting [2].

(Values after patent US20050070595A1, “Trioxane derivatives as antimalaria or anticancer compounds” (priority 2001, published 2005).)
